Measured values as given in PMC7998731, “Pharmacokinetic Characterization of Supinoxin and Its Physiologically Based Pharmacokinetic Modeling in Rats” (Pharmaceutics, 2021).
Several values for one entry are separate records, joined by “and”; a condition that tells them apart may be missing. Identical values can stand only once. Like-named read-outs stand apart in the source and are kept apart here.

How the values were obtained:
[1] = In vivo pharmacokinetic study, intravenous administration to rats; details: rat, plasma; for concentration at 0.083 h / concentration at 0.25 h / concentration at 0.5 h / concentration at 1 h / concentration at 3 h / concentration at 7 h / concentration at 10 h / concentration at 24 h: fasted male SD rats; for concentration at 24 h: BQL treated as 0; for AUC(0-inf) / AUC(0-t) / MRT / clearance / half-life / Vd: male
Method: Male Sprague Dawley (SD) rats, 6–7 weeks old, were purchased from Orient Bio Inc. (Seongnam-si, Korea) and were used in all in vivo studies. The animals were maintained at a temperature of 20–26 °C with a 12 h light/dark cycle and a relative humidity of 40–60%. The experimental protocols involving the animals used in this study were reviewed by the Animal Care and Use Committee of Chungnam National University (CNU-00576, Daejeon, Korea; approval date: 13 March 2015).
Supinoxin was dissolved in a vehicle (10% DMSO, 10% Tween 80, 40% PEG 400, and 40% saline). In single doses, the administration routes involved an intravenous bolus via the tail vein (n = 4–5) and an oral gavage dose (n = 4–5). The dosing volume was 2 mL per kg body weight, and the dosing range was 0.5, 1, and 5 mg/kg. Blood samples (200 µL) were collected from the jugular vein at 0.083 (intravenous only), 0.25, 0.5, 1, 3, 7, 10, and 24 h after dosing, using a heparinized syringe to ensure anticoagulation. During blood sampling, rats were placed in a restrainer (Nagai-CFS-1S; NMS, Tokyo, Japan). For the separation of plasma fractions, all blood samples were centrifuged at 17,600× g for 5 min. The samples were stored at −20 °C until analysis. When obtaining tissue concentrations to calculate the tissue-to-plasma partition ratio was necessary, samples of nine tissues (i.e., adipose, heart, muscle, kidney, brain, liver, spleen, gut, and lung) were collected at 0.33, 1, 3, 7, and 24 h after 5 mg/kg intravenous administration of supinoxin (n = 3).
The peak concentration (Cmax) and the time to reach Cmax (Tmax) were obtained directly from individual plasma concentration–time profiles. Linear trapezoidal rule was used to calculate the areas under the plasma concentration–time curve (AUC) and the first moment curve (AUMC), while the terminal half-life (T1/2) was calculated using 0.693/λ, where λ represents the slope of the log-transformed concentration–time profiles of the terminal phase. The systemic clearance (CL), mean residence time (MRT), and the volume of the distribution at the steady state (Vss) were calculated as follows: dose/AUC, AUMC/AUC, and MRT·CL, respectively. To calculate the absolute oral bioavailability (F) we divided the AUC obtained following oral administration by that obtained following intravenous administration of the respective dose.
To determine supinoxin concentrations in plasma, feces, and urine, we used a previously reported LC–MS/MS assay using DGG-200064 as an internal standard (IS). Briefly, an aliquot (50 μL) of IS solution (concentration 100 ng/mL) was added to 50 μL of plasma, feces, or urine sample, following which 400 μL of acetonitrile containing 0.1% formic acid was added. After vigorous vortexing for 10 min, the extract was centrifuged at 17,600 rpm for 10 min at 4 °C, and the supernatant was placed in an autosampler vial. An aliquot of 5 µL was then injected into the analytical column for chromatographic separation; the analytical system consisted of a 1200 series HPLC system (Applied Biosystems, Foster City, CA, USA) equipped with a turbo-electrospray interface in positive ionization mode.

[2] = Determination of urinary and fecal excretion in rats; type: in vivo; details: 5 mg/kg; for Fecal excretion, Amount / Fecal excretion, Fraction Excreted (unchanged) / Urinary excretion, Amount / Urinary excretion, Fraction Excreted (unchanged): 0–48 h
Method: Supinoxin was administered to male SD rats (n = 3–4) at a dose of 5 mg/kg either intravenously (through the tail vein) or by oral gavage, following which rats were kept in metabolic cages and urine and feces samples were collected over the following time intervals: 0–2, 2–4, 4–6, 6–10, 10–24, 24–36, and 36–48 h for urine; 0–10, 10–24, 24–36, and 36–48 h for feces.
The metabolic cages were rinsed with distilled water, and residues were added to the urine samples at 48 h. To extract the supinoxin present in the feces, samples were homogenized with a blender mixer and shaken vigorously for 4 h with 50% methanol.
The amount of drug excreted in urine or feces (Ae) and the dose fractions excreted unchanged in urine or feces (fe) were calculated as:Ae = Cobs, urine or feces × Vurine or feces(2) fe = Ae/Dose(3)
The urinary and fecal clearances of supinoxin were calculated as:CLurine or feces = Ae, urine or feces/AUC(4)

[3] = Plasma protein binding by Rapid Equilibrium Dialysis; type: in vitro ADME; details: rat plasma
Method: (§1) To determine the unbound fraction of supinoxin in the plasma, a protein binding study was carried out using the Rapid Equilibrium Dialysis (RED) method. Following the manufacturer’s protocol (Thermo Fisher Scientific, San Jose, CA, USA), supinoxin was added to a plasma aliquot to produce a final concentration of 1 µg/mL. A plasma aliquot containing supinoxin (200 µL) and buffer (350 µL) was added to the sample chamber and the buffer chamber, respectively. When necessary, supinoxin was added to the microsomal incubation mixture (0.5 mg of protein per mL in potassium phosphate buffer) to produce final concentrations of 1 µM. The plate was covered and agitated on an orbital shaker at approximately 250 rpm at 37 °C. Aliquots (25 µL) of the plasma and buffer were collected at 4, 8, 18, and 24 h, and the samples were subjected to LC–MS/MS analysis. The fraction of supinoxin bound to plasma protein was estimated as follows:Percent bound (%) = [1 − (concentration in buffer/concentration in plasma)] × 100%(5)

[4] = Unbound fraction in microsomal incubation mixture (Rapid Equilibrium Dialysis); type: in vitro ADME; details: rat, liver microsomes 0.5 mg protein/mL
Method: as §1

[5] = Sprague-Dawley, intravenous 0.5 mg/kg
[6] = Sprague-Dawley, intravenous 5 mg/kg
[7] = Sprague Dawley, rats, intravenous, 0.5 mg/kg
[8] = Sprague Dawley, rats, intravenous, 5 mg/kg

Question: What does the source list for `COc1cc(OC)cc(N2CCN(C(=O)Nc3nc4cc(F)ccc4nc3OC)CC2)c1` [supinoxin, 1-(3,5-Dimethoxyphenyl)-4-[(6-Fluoro-2-Methoxyquinoxalin-3-yl) Aminocarbonyl] Piperazine]?
Answer: concentration at 0.083 h [1, 5]: 313 ng/mL; concentration at 0.25 h [1, 5]: 255 ng/mL; concentration at 0.5 h [1, 5]: 206 ng/mL; concentration at 1 h [1, 5]: 140 ng/mL; concentration at 3 h [1, 5]: 79.3 ng/mL; concentration at 7 h [1, 5]: 20.8 ng/mL; concentration at 10 h [1, 5]: 8.2 ng/mL; concentration at 24 h [1, 5]: 0.3 ng/mL; concentration at 0.083 h [1, 6]: 2380 ng/mL; concentration at 0.25 h [1, 6]: 1640 ng/mL; concentration at 0.5 h [1, 6]: 1310 ng/mL; concentration at 1 h [1, 6]: 907 ng/mL; concentration at 3 h [1, 6]: 600 ng/mL; concentration at 7 h [1, 6]: 234 ng/mL; concentration at 10 h [1, 6]: 130 ng/mL; concentration at 24 h [1, 6]: 5.8 ng/mL; AUC(0-inf) [1, 7]: 727 ± 177 ng·h/mL; AUC(0-t) [1, 7]: 715 ± 180 ng·h/mL; MRT [1, 7]: 2.92 ± 0.65 h; clearance ([1]; Sprague Dawley, rats, intravenous, 0.5 mg/kg, read-out: CL (converted)): 11.9 mL/min/kg; half-life ([1]; Sprague Dawley, rats, intravenous, 0.5 mg/kg, read-out: T1/2 (converted)): 2.54 ± 0.83 h; AUC(0-inf) [1, 8]: 6130 ± 1750 ng·h/mL; AUC(0-t) [1, 8]: 6090 ± 1760 ng·h/mL; MRT [1, 8]: 4.07 ± 1.37 h; clearance ([1]; Sprague Dawley, rats, intravenous, 5 mg/kg, read-out: CL (converted)): 14.4 mL/min/kg; half-life ([1]; Sprague Dawley, rats, intravenous, 5 mg/kg, read-out: T1/2 (converted)): 2.8 ± 0.71 h; clearance ([1]; Sprague-Dawley, PBPK input parameter, Determined, from intravenous administration study, read-out: In vivo clearance (CLiv)): 3.16 mL/min; Vd ([1]; Sprague-Dawley, rats, intravenous, 0.5 mg/kg, read-out: Vss): 2.11 ± 0.803 L/kg; Vd ([1]; Sprague-Dawley, rats, intravenous, 5 mg/kg, read-out: Vss): 3.5 ± 1.45 L/kg; Vd ([1]; Sprague-Dawley, rats, intravenous, range over doses 0.5–5 mg/kg, read-out: steady state volume of distribution): 2.04 to 3.5 L/kg; clearance ([1]; Sprague-Dawley, rats, intravenous, range over doses 0.5–5 mg/kg, read-out: systemic clearance): 11.5 to 14.4 mL/min/kg; half-life ([1]; Sprague-Dawley, rats, intravenous, range over doses 0.5–5 mg/kg, read-out: terminal half-life): 2.54 to 2.8 h; Fecal excretion, Amount ([2]; IV): 142 ± 21.6 µg; Fecal excretion, Fraction Excreted (unchanged) ([2]; IV): 16.5% and 16.5 ± 2.82%; Urinary excretion, Amount ([2]; IV): 0.27 ± 0.06 µg; Urinary excretion, Fraction Excreted (unchanged) ([2]; IV): 0.03% and 0.03 ± 0.01%; Fecal excretion, Amount ([2]; PO): 412 ± 209 µg; Fecal excretion, Fraction Excreted (unchanged) ([2]; PO): 46.8% and 46.8 ± 24.5%; Urinary excretion, Amount ([2]; PO): 0.06 ± 0.04 µg; Urinary excretion, Fraction Excreted (unchanged) ([2]; PO): 0.01% and 0.01 ± 0.01%; dose excreted ([2]; male, Sprague-Dawley (SD), rat, urine, both intravenous and oral administration, read-out: total urinary recovery of unchanged supinoxin): < 0.1%; fraction unbound at 4 h, 1 µg/mL ([3]; 1 µg/mL, 4 h incubation): 0.023 ± 0.0025; fraction unbound at 8 h, 1 µg/mL ([3]; 1 µg/mL, 8 h incubation): 0.0283 ± 0.0019; fraction unbound at 24 h, 1 µg/mL ([3]; 1 µg/mL, 24 h incubation): 0.0354 ± 0.0055; fraction unbound at 1 µg/mL ([3]; as fraction, Determined, read-out: Fraction unbound in plasma (fu)): 0.0363; fraction unbound at 18 h, 1 µM ([4]; liver microsomal incubation mixture, 18 h incubation): 0.623 ± 0.016; fraction unbound at 4 h, 1 µM ([4]; 4 h incubation): 0.518 ± 0.025; fraction unbound at 8 h, 1 µM ([4]; 8 h incubation): 0.57 ± 0.017; fraction unbound at 24 h, 1 µM ([4]; 24 h incubation): 0.615 ± 0.046
